Values of other authors in patent publication US20240024490A1, “BIFUNCTIONAL MOLECULES FOR SELECTIVE MODIFICATION OF TARGET SUBSTRATES” (The Broad Institute, Inc., priority 2021, published 2024).
Where two headings read alike, the source gives them in different places.

Assays:
[1] = test system: EGFR(L858R/T790M/C797S) tumors; conditions: in vivo; cited from earlier work
[2] = test system: screening panel of kinases; conditions: 1000 nM EAI045; cited from earlier work
[3] = cited from earlier work
Crk-L = conditions: cited from earlier work
PTK2 = conditions: prostate cancer cells; read-out: IC50, autophosphorylation of PTK2; cited from earlier work
KU-19-19 (bladder) = conditions: cited from earlier work
BT-474 (breast) = conditions: cited from earlier work
MCF-7 (breast) = conditions: cited from earlier work
RIPK-1 = RIPK-1 (Homo sapiens, UniProt Q13546); conditions: cited from earlier work
C26 = conditions: cited from earlier work
[4] = cited from earlier work; remark: listed apart in the source
[5] = test system: LPS-stimulated THP-1 cells; conditions: read-out: IC50, block of TNFα release; cited from earlier work
c-Met = biological target: T1, c-Met (Homo sapiens, UniProt P08581); conditions: cited from earlier work
T1 construct: host or cells: NCI-H441 (as the sentence says)

NCI-H441 cells [6] = conditions: read-out: viability IC50; cited from earlier work
NCI-H441 cells [7] = conditions: read-out: phosphor-MET IC50; cited from earlier work
NCI-H441 cells [8] = conditions: read-out: Invasion IC50; cited from earlier work
[9] = test system: CD138-purified multiple myeloma (MM) cells from patients; conditions: cited from earlier work
MS751 cervical carcinoma = conditions: read-out: IC50, proliferation; cited from earlier work
LAX7R = conditions: cited from earlier work
SEM cells = conditions: cited from earlier work
SupB15 = conditions: cited from earlier work
RS4 = conditions: cited from earlier work
ICN13 = conditions: cited from earlier work
Z138 = conditions: read-out: IC50, proliferation; cited from earlier work
Nalm6 = conditions: cited from earlier work
OP-1 = conditions: cited from earlier work
LAX2 = conditions: cited from earlier work
KOPN-8 = conditions: cited from earlier work
REH = conditions: cited from earlier work
697 cells = conditions: cited from earlier work
[10] = test system: Molt-4 (T cell acute lymphoblastic leukemia) xenografts; conditions: SCID mice; cited from earlier work
p-ERK1/2 = conditions: cited from earlier work
[11] = in vivo; cited from earlier work
FGFR2 = conditions: read-out: IC50, FGF1-induced ERK phosphorylation via FGFR2; cited from earlier work

T1 sequence (P08581 25-1390): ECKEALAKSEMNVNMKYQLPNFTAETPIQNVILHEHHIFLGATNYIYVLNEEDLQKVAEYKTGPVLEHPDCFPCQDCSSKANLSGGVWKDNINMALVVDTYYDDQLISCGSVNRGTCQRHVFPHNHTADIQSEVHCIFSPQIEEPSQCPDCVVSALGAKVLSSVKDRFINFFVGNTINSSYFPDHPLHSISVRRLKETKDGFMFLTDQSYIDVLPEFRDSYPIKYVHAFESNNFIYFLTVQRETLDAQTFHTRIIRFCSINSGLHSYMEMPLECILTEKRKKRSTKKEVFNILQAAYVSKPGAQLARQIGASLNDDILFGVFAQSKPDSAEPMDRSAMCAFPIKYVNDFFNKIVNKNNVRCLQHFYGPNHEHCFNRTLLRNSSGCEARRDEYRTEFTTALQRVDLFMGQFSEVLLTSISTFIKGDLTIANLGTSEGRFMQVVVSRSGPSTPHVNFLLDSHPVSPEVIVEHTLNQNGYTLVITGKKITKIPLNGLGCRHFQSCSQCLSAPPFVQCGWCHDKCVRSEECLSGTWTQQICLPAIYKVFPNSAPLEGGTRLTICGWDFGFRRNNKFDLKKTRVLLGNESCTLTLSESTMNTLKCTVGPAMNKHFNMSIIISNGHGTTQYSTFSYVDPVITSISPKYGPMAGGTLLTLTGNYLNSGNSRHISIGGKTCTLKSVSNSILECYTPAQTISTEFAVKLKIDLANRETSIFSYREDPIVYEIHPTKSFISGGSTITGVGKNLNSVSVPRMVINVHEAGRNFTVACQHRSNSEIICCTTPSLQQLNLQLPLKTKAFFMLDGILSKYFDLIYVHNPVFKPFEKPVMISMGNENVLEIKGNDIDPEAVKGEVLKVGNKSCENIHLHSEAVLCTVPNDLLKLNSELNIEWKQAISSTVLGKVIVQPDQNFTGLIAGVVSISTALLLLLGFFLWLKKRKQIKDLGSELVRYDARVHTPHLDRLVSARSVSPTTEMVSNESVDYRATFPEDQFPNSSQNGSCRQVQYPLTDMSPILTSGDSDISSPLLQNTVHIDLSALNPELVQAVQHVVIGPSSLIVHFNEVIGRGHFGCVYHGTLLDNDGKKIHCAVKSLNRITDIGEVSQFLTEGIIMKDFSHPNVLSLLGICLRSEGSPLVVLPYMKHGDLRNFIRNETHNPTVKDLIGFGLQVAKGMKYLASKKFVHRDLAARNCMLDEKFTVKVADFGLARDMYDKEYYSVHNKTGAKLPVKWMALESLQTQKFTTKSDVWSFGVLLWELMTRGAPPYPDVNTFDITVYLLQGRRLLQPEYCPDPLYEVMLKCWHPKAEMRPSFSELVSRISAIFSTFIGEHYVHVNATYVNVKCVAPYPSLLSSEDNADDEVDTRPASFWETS
Chain of RIPK-1 (Q13546 whole entry, species assumed): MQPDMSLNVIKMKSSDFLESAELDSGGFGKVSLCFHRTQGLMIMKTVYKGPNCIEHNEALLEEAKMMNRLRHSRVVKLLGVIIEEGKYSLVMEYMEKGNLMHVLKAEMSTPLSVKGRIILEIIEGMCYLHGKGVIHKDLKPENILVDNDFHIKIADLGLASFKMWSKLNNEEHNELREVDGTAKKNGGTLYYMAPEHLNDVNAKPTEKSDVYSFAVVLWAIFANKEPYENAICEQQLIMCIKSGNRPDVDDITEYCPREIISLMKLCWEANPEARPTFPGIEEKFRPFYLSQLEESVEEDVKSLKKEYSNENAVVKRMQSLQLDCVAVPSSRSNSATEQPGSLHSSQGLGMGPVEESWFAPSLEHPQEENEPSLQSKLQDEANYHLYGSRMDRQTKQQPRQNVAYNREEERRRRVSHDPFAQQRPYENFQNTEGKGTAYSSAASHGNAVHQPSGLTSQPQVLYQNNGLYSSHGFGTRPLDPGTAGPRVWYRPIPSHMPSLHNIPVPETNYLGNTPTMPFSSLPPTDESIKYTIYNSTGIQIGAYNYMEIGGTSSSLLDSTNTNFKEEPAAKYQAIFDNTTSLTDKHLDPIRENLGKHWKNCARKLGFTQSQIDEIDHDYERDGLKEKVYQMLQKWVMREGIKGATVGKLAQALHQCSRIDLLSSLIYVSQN

## O=C(Nc1nccs1)C(c1cc(F)ccc1O)N1Cc2ccccc2C1=O (stereo not shown) [EAI045]
[1]
  efficacy in xenograft models: effective
[2]
  inhibition of any other kinases in screening panels: ≤ 20%

## N#CCCC(=O)NC1=NN(c2ccc(Cl)c(Cl)c2)CC1 [compound 32]
[3]
  In Vitro Clearance: <0.01 mL/min/mg protein
Crk-L; 40 min
  Fold Increase phCRKE Vs Total Crk-L (normalised): 19x
Crk-L; 180 min
  Fold Increase phCRKE Vs Total Crk-L (normalised): 35x

## CN1c2ccc(NCc3ccc(C(C)(C)C)cc3)cc2-c2c(cnn2C)S1(=O)=O [compound 30]
PTK2
  IC50: 7100 nM

## C=CC(=O)Nc1ccc2[nH]c(=O)n(C3CCN(Cc4ccc(-c5nc6cc[nH]c(=O)c6cc5-c5ccccc5)cc4)CC3)c2c1 [Borussertib]
KU-19-19 (bladder)
  EC50: 7770 ± 641 nM
BT-474 (breast)
  EC50: 373 ± 54 nM
MCF-7 (breast)
  EC50: 277 ± 90 nM

## CCC(C)(C)C(=O)N(O)Cc1ccccc1 [RIPA-56]
RIPK-1
  pIC50: 7.9

## O=C(NOCC1CC1)c1ccc(F)c(F)c1Nc1ccc(I)cc1Cl [24 (CI-1040), CI-1040]
C26
  IC50: 35 nM
[4]
  Sol (pH 6.5): <1 μg/mL

## Cc1ccc(-n2nc(C(C)(C)C)cc2NC(=O)Nc2ccc(OCCN3CCOCC3)c3ccccc23)cc1 [Doramapimod]
[5]
  IC50: 18 nM

## O=C1NC(=O)[C@@H](c2cn3c4c(cccc24)CCC3)[C@@H]1c1c[nH]c2ccccc12 [tivantinib]
c-Met
  pKi: 6.4
  selectivity for c-Met over other kinases tested: 10-100 time
c-Met; read-out: Enzyme IC50
  IC50: 50 nM
NCI-H441 cells [6]
  IC50: 100 nM
NCI-H441 cells [7]
  IC50: 100 nM
NCI-H441 cells [8]
  IC50: 80 nM

## O=C(NC[C@H](O)CO)c1ccncc1Nc1ccc(I)cc1F [Pimasertib]
[9]
  IC50: 2 to 200 nM

## Nc1ccc(/C=C/C(=O)NCc2cc3cc(-c4ccc(C(=O)N5CCC(F)(F)CC5)cc4)cc(-c4ccc(F)cc4)c3o2)cn1 [KPT-9274]
MS751 cervical carcinoma
  IC50: < 100 nM
LAX7R
  IC50: 32.7 nM
SEM cells
  IC50: > 10000 nM
SupB15
  IC50: 22.6 nM
RS4
  IC50: 5.6 nM
ICN13
  IC50: 25.9 nM
Z138
  IC50: < 100 nM
Nalm6
  IC50: 19 nM
OP-1
  IC50: 18 nM
LAX2
  IC50: 19.4 nM
KOPN-8
  IC50: 2.4 nM
REH
  IC50: 14.3 nM
697 cells
  IC50: 16.7 nM
[10]
  effect on xenografts: induces shrinkage

## CC(=O)Nc1cccc(-n2c(=O)n(C3CC3)c(=O)c3c(Nc4ccc(I)cc4F)n(C)c(=O)c(C)c32)c1 [Trametinib, Trametnib]
p-ERK1/2
  sustained suppression of p-ERK1/2: more than 24 hours
[11]
  Absorption/distribution of an oral dose: 72%

## COc1c(C)c(C(=O)c2ccc(N)c(C(=O)O)c2)n2ccccc12 [SSR128129E]
FGFR2
  IC50: < 100 nM
